{"source": "patent US20020137929A1", "about": "“1 - (3-heterocyclylphenyl) isothiourea, -isourea, -guanidine and -amidine herbicidal agents” (Intellectual Property Department, BASF Aktiengesellschaft, priority 1998, published 2002)", "key": {"[1]": {"test_system": "ECHORC (Watergrass (Calif.))", "test": "Preemergence weed control under flooded paddy conditions", "assay_type": "in vivo, Echinochloa oryzoides", "conditions": "rated 3-4 weeks after treatment", "summary_of_the_method": "(§1)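 Visual injury scored 0-9 against control three to four weeks post-treatment, greenhouse-grown. Application: acetone/water (50/50) solutions dosed directly into flood water (1.5-3 cm over silt loam, planted top 0.5 cm), roughly 0.0313 to 0.500 kg/ha active ingredient.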"}, "ORYSAT (Rice, Tebonnet)": {"test_system": "ORYSAT (Rice, Tebonnet)", "test": "Preemergence herbicidal evaluation", "assay_type": "in vivo, Oryza sativa, (L.) Tebonnet", "conditions": "rated 4-5 weeks after treatment; for ORYSAT rating: preemergence, 0-9 scale", "summary_of_the_method": "(§2)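 Test compound, dissolved in aqueous acetone, was sprayed over planted soil cups at an equivalent of about 0.0156 to 0.500 kg/ha; seeds had been mixed with potting soil. Greenhouse growth followed, with visual 0-9 scoring of injury at four to five weeks.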"}, "CYPSE (Flatsedge)": {"test_system": "CYPSE (Flatsedge)", "test": "Preemergence weed control under flooded paddy conditions", "assay_type": "in vivo, Cyperus serotinus", "conditions": "rated 3-4 weeks after treatment", "summary_of_the_method": "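Ratings on a 0-9 visual scale cover stand, vigor, malformation, size, chlorosis and overall appearance relative to a control, taken three to four weeks post-treatment. Application was into flood water over freshly sown silt loam at roughly 0.0313 to 0.500 kg/ha.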"}, "GALAP (Galium)": {"test_system": "GALAP (Galium)", "test": "Postemergence herbicidal evaluation", "assay_type": "in vivo, Galium aparine", "conditions": "postemergence", "summary_of_the_method": "(§3)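 Visual 0-9 injury score (stand, vigor, malformation, size, chlorosis, appearance vs untreated) taken four to five weeks post-spray, averaged across repeat tests. Test plants about two weeks old; foliar spray of acetone/water (1:1) with 0.5% surfactant delivering ~0.0156-0.500 kg active/ha.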"}, "AMBEL (Ragweed, Common)": {"test_system": "AMBEL (Ragweed, Common)", "test": "Preemergence herbicidal evaluation", "assay_type": "in vivo, Ambrosia artemisifolia", "conditions": "rated 4-5 weeks after treatment; for AMBEL rating: preemergence, 0-9 scale", "summary_of_the_method": "as §2"}, "[2]": {"test_system": "TRZAWR (Wheat, Winter, cv Riband)", "test": "Preemergence herbicidal evaluation", "assay_type": "in vivo, Triticum aestivum", "conditions": "rated 4-5 weeks after treatment; for TRZAWR rating: preemergence, 0-9 scale", "summary_of_the_method": "as §2"}, "CYPIR (Rice Flatsedge)": {"test_system": "CYPIR (Rice Flatsedge)", "test": "Preemergence weed control under flooded paddy conditions", "assay_type": "in vivo, Cyperus iria", "conditions": "rated 3-4 weeks after treatment", "summary_of_the_method": "as §1"}, "ZEAMX (Corn, Field) [3]": {"test_system": "ZEAMX (Corn, Field)", "test": "Postemergence herbicidal evaluation", "assay_type": "in vivo, Zea mays", "conditions": "postemergence", "summary_of_the_method": "as §3"}, "[4]": {"test_system": "CHEAL (Lambsquarters, Common)", "test": "Preemergence herbicidal evaluation", "assay_type": "in vivo, Chenopodium album", "conditions": "rated 4-5 weeks after treatment; for CHEAL rating: preemergence, 0-9 scale", "summary_of_the_method": "as §2"}, "ZEAMX (Corn, Field) [5]": {"test_system": "ZEAMX (Corn, Field)", "test": "Preemergence herbicidal evaluation", "assay_type": "in vivo, Zea mays", "conditions": "rated 4-5 weeks after treatment; for ZEAMX rating: preemergence, 0-9 scale", "summary_of_the_method": "as §2"}, "[6]": {"test_system": "IPOHE (Morningglory, Ivyleaf)", "test": "Preemergence herbicidal evaluation", "assay_type": "in vivo, Ipomoea hederacea", "conditions": "rated 4-5 weeks after treatment; for IPOHE rating: preemergence, 0-9 scale", "summary_of_the_method": "as §2"}, "CASOB (Sicklepod)": {"test_system": "CASOB (Sicklepod)", "test": "Postemergence herbicidal evaluation", "assay_type": "in vivo, Cassia obtusifolia", "conditions": "postemergence", "summary_of_the_method": "as §3"}}}
{"smiles": "C=CCOC(=O)CN1C(=O)CSC1=Nc1cc(-n2c(=O)cc(C(F)(F)F)n(C)c2=O)c(F)cc1Cl", "note": "[Compound 106, Allyl 2-{{2-chloro-5-[3,6-dihydro-3-methyl-2,6-dioxo-4-(trifluoromethyl)-1(2H)-pyrimidinyl]-4-fluorophenyl}imino}-4-oxo-3-thiazolidineacetate]", "values": [{"measurement": "ECHORC herbicidal effect rating", "setting": "[1]; 0.0313 kg/ha", "result": 2.0}, {"measurement": "ECHORC herbicidal effect rating", "setting": "[1]; 0.0625 kg/ha", "result": 4.0}, {"measurement": "ECHORC herbicidal effect rating", "setting": "[1]; 0.1250 kg/ha", "result": 5.0}, {"measurement": "ECHORC herbicidal effect rating", "setting": "[1]; 0.2500 kg/ha", "result": 7.0}, {"measurement": "ORYSAT rating", "setting": "ORYSAT (Rice, Tebonnet); 0.0313 kg/ha", "result": 1.0}, {"measurement": "ORYSAT rating", "setting": "ORYSAT (Rice, Tebonnet); 0.0625 kg/ha", "result": 2.0}, {"measurement": "ORYSAT rating", "setting": "ORYSAT (Rice, Tebonnet); 0.1250 kg/ha", "result": 2.5}, {"measurement": "ORYSAT rating", "setting": "ORYSAT (Rice, Tebonnet); 0.2500 kg/ha", "result": 5.0}, {"measurement": "Preemergence herbicidal rating ORYSAT", "setting": "ORYSAT (Rice, Tebonnet); rate 0.0156 kg/ha", "result": 1.5}, {"measurement": "CYPSE herbicidal effect rating", "setting": "CYPSE (Flatsedge); 0.0313 kg/ha", "result": 0.0}, {"measurement": "CYPSE herbicidal effect rating", "setting": "CYPSE (Flatsedge); 0.0625 kg/ha", "result": 0.0}, {"measurement": "CYPSE herbicidal effect rating", "setting": "CYPSE (Flatsedge); 0.1250 kg/ha", "result": 2.0}, {"measurement": "CYPSE herbicidal effect rating", "setting": "CYPSE (Flatsedge); 0.2500 kg/ha", "result": 6.0}, {"measurement": "herbicidal rating GALAP", "setting": "GALAP (Galium); rate 0.0158 kg/ha", "result": 1.0}, {"measurement": "herbicidal rating GALAP", "setting": "GALAP (Galium); rate 0.0315 kg/ha", "result": 1.0}, {"measurement": "herbicidal rating GALAP", "setting": "GALAP (Galium); rate 0.0630 kg/ha", "result": 1.0}, {"measurement": "AMBEL rating", "setting": "AMBEL (Ragweed, Common); 0.0313 kg/ha", "result": 1.5}, {"measurement": "AMBEL rating", "setting": "AMBEL (Ragweed, Common); 0.0625 kg/ha", "result": 5.0}, {"measurement": "AMBEL rating", "setting": "AMBEL (Ragweed, Common); 0.1250 kg/ha", "result": 7.0}, {"measurement": "AMBEL rating", "setting": "AMBEL (Ragweed, Common); 0.2500 kg/ha", "result": 9.0}, {"measurement": "Preemergence herbicidal rating AMBEL", "setting": "AMBEL (Ragweed, Common); rate 0.0156 kg/ha", "result": 1.5}, {"measurement": "TRZAWR rating", "setting": "[2]; 0.0313 kg/ha", "result": 0.0}, {"measurement": "TRZAWR rating", "setting": "[2]; 0.0625 kg/ha", "result": 2.0}, {"measurement": "TRZAWR rating", "setting": "[2]; 0.1250 kg/ha", "result": 3.0}, {"measurement": "TRZAWR rating", "setting": "[2]; 0.2500 kg/ha", "result": 5.0}, {"measurement": "Preemergence herbicidal rating TRZAWR", "setting": "[2]; rate 0.0156 kg/ha", "result": 0.0}, {"measurement": "CYPIR herbicidal effect rating", "setting": "CYPIR (Rice Flatsedge); 0.0313 kg/ha", "result": 5.0}, {"measurement": "CYPIR herbicidal effect rating", "setting": "CYPIR (Rice Flatsedge); 0.0625 kg/ha", "result": 6.0}, {"measurement": "CYPIR herbicidal effect rating", "setting": "CYPIR (Rice Flatsedge); 0.1250 kg/ha", "result": 6.0}, {"measurement": "CYPIR herbicidal effect rating", "setting": "CYPIR (Rice Flatsedge); 0.2500 kg/ha", "result": 9.0}, {"measurement": "herbicidal rating ZEAMX", "setting": "ZEAMX (Corn, Field) [3]; rate 0.0158 kg/ha", "result": 5.0}, {"measurement": "herbicidal rating ZEAMX", "setting": "ZEAMX (Corn, Field) [3]; rate 0.0315 kg/ha", "result": 6.5}, {"measurement": "herbicidal rating ZEAMX", "setting": "ZEAMX (Corn, Field) [3]; rate 0.0630 kg/ha", "result": 7.0}, {"measurement": "CHEAL rating", "setting": "[4]; 0.0313 kg/ha", "result": 9.0}, {"measurement": "CHEAL rating", "setting": "[4]; 0.0625 kg/ha", "result": 9.0}, {"measurement": "CHEAL rating", "setting": "[4]; 0.1250 kg/ha", "result": 9.0}, {"measurement": "CHEAL rating", "setting": "[4]; 0.2500 kg/ha", "result": 9.0}, {"measurement": "Preemergence herbicidal rating CHEAL", "setting": "[4]; rate 0.0156 kg/ha", "result": 8.0}, {"measurement": "ZEAMX rating", "setting": "ZEAMX (Corn, Field) [5]; 0.0313 kg/ha", "result": 1.0}, {"measurement": "ZEAMX rating", "setting": "ZEAMX (Corn, Field) [5]; 0.0625 kg/ha", "result": 2.5}, {"measurement": "ZEAMX rating", "setting": "ZEAMX (Corn, Field) [5]; 0.1250 kg/ha", "result": 4.0}, {"measurement": "ZEAMX rating", "setting": "ZEAMX (Corn, Field) [5]; 0.2500 kg/ha", "result": 5.0}, {"measurement": "Preemergence herbicidal rating ZEAMX", "setting": "ZEAMX (Corn, Field) [5]; rate 0.0156 kg/ha", "result": 0.0}, {"measurement": "IPOHE rating", "setting": "[6]; 0.0313 kg/ha", "result": 2.5}, {"measurement": "IPOHE rating", "setting": "[6]; 0.0625 kg/ha", "result": 7.0}, {"measurement": "IPOHE rating", "setting": "[6]; 0.1250 kg/ha", "result": 7.5}, {"measurement": "IPOHE rating", "setting": "[6]; 0.2500 kg/ha", "result": 9.0}, {"measurement": "Preemergence herbicidal rating IPOHE", "setting": "[6]; rate 0.0156 kg/ha", "result": 2.0}, {"measurement": "herbicidal rating CASOB", "setting": "CASOB (Sicklepod); rate 0.0158 kg/ha", "result": 1.0}, {"measurement": "herbicidal rating CASOB", "setting": "CASOB (Sicklepod); rate 0.0315 kg/ha", "result": 1.0}, {"measurement": "herbicidal rating CASOB", "setting": "CASOB (Sicklepod); rate 0.0630 kg/ha", "result": 3.0}]}
